{"source": "paper PMC9026148", "about": "“Pre-Clinical Study Evaluating Novel Protein Phosphatase 2A Activators as Therapeutics for Neuroblastoma” (Cancers, 2022)", "origin": "cited, not measured here", "system": "CYP3A4", "design": "method as in PMID 32954276", "conditions": "at 1 h, cited from earlier work"}
{"smiles": "O=S(=O)(N[C@@H]1CCC[C@H](N2c3ccccc3Oc3ccccc32)[C@H]1O)c1ccc(OC(F)(F)F)cc1", "note": "[NZ-8-061]", "values": [{"measurement": "time-dependent inhibition of CYP3A4 (fold shift)", "result": "> 30", "unit": "fold"}, {"measurement": "IC50", "setting": "time-dependent inhibition", "result": "< 1000", "unit": "nM"}]}
